The values that follow are results of earlier work, collected in paper PMC10329973 (Clinical pharmacology in drug development, 2023).

One data set relates to blood pressure. As to conditions: cited from earlier work.
The next data set concerns depressed individuals. Particulars: study in depressed individuals; cited from earlier work.

With `Cc1ccc(COC(=O)N2CC[C@H](CNc3ncccn3)[C@H](F)C2)cc1` [MK-0657], the off-target cardiovascular effects result in the data set on blood pressure is “increased blood pressure”.
With `C[C@@H]([C@@H](O)c1ccc(O)cc1)N1CCC(O)(c2ccccc2)CC1` [CP-101,606, traxoprodil], the dissociative effects entry in the data set with depressed individuals was “ketamine-like dissociative effects were noted”.
